Laboratory results taken from patent US20240287138A1, “CYCLIC PEPTIDES FOR INHIBITING TNF RECEPTOR 1 ACTIVITY” (Merck Sharp & Dohme LLC, priority 2023, published 2024).
Where two headings read alike, the source gives them in different places. Numbered stars: 1 amine (or outer) side, 2 acyl side, 3 side chain; on linkers, the order of the positions; unused ones are H or OH. Bridge positions count the residues as written; N and C are the ends. Square brackets hold non-standard residues; d marks the D form. Peptide text beside a SMILES is read from it. * marks the point of attachment. Trp(βS-Me,7-OMe) = COc1cccc2c([C@H](C)[C@H](N)C(=O)O)c[nH]c12; Phe(3R-OH) = O=C([C@@H](N[*:1])[C@H](O[*:3])c1ccccc1)[*:2]; X49 = C[N+](C)(C)CC(=O)N[C@H]1C[C@H](C(=O)[*:2])N([*:1])C1; Ala(1-bicyclo(1.1.1)pentyl) = N[C@@H](CC12CC(C1)C2)C(=O)O; Phe(4-SO2NH2) = N[C@@H](Cc1ccc(S(N)(=O)=O)cc1)C(=O)O; Phe(4-SO3H) = N[C@@H](Cc1ccc(S(=O)(=O)O)cc1)C(=O)O; Trp(7-CN) = N#Cc1cccc2c(C[C@H](N)C(=O)O)c[nH]c12; Trp(7-Cl) = N[C@@H](Cc1c[nH]c2c(Cl)cccc12)C(=O)O; X55 = O=C([C@H]1C[C@H](c2nn[nH]n2)CN1[*:1])[*:2]; X27 = O=C(O)c1ccc(C[C@H](N[*:1])C(=O)[*:2])cc1F; Phe(4-CONH2) = NC(=O)c1ccc(C[C@H](N)C(=O)O)cc1; Phe(4-COOH) = N[C@@H](Cc1ccc(C(=O)O)cc1)C(=O)O; Trp(7-aza) = N[C@@H](Cc1c[nH]c2ncccc12)C(=O)O; Pip(5R-OH) = O=C(O)[C@@H]1CC[C@@H](O)CN1; αMeW = C[C@](N)(Cc1c[nH]c2ccccc12)C(=O)O; Tyr(2-F) = N[C@@H](Cc1ccc(O)cc1F)C(=O)O; X1 = O=C([C@@H]1CC[C@H](N[*:1])C1)[*:2]; Pip(4-aza) = O=C(O)[C@@H]1CNCCN1; 4Pal = N[C@@H](Cc1ccncc1)C(=O)O; NMeE = CN[C@@H](CCC(=O)O)C(=O)O; dHyp = O=C(O)[C@H]1C[C@H](O)CN1; hSer = N[C@@H](CCO)C(=O)O; αMeS = C[C@](N)(CO)C(=O)O; Carboxymethyl = O=C(O)C*; Nle = CCCC[C@H](N)C(=O)O; Dab = NCC[C@H](N)C(=O)O; Sar = CNCC(=O)O

What was measured:
[1] = biological target: T1, TNFα-induced NF-κB signal transduction pathway (TNFR1 signaling) in THP-1 cells (Homo sapiens, UniProt P19438); assay: THP-1 Lucia NF-κB reporter cell assay, inhibition of TNFα-induced NF-κB signaling; assay type: cell-based; conditions: THP-1 NF-κB Lucia reporter cells, 10 ng/mL TNFα, 16-18 h, secreted luciferase, read-out: THP-1 IC50
T1 sequence (P19438 30-455): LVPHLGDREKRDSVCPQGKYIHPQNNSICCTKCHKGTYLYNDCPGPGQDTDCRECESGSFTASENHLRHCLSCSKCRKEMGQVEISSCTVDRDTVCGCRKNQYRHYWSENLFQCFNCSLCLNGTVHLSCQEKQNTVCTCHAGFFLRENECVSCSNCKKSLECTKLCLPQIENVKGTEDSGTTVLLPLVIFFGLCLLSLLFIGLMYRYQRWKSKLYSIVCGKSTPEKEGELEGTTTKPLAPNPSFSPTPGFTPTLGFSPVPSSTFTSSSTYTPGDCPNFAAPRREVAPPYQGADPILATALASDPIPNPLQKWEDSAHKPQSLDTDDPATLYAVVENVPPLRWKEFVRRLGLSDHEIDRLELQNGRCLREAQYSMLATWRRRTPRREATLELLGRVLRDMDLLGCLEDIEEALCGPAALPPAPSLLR
Summary of the method: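 Inhibition of TNFR1-driven NF-κB activation was measured as luminescence of secreted reporter luciferase following overnight (16-18 h) stimulation with 10 ng/mL TNFα.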

[2] = biological target: T2, human soluble TNFR1 (sTNFR1) (Homo sapiens, UniProt P19438); assay: Human sTNFR1-peptide displacement assay (LanthaScreen Eu TR-FRET binding assay)
T2 construct: made in house; host or cells: Sf21 (baculovirus)
T2 sequence (P19438 with tags, fused parts or gaps): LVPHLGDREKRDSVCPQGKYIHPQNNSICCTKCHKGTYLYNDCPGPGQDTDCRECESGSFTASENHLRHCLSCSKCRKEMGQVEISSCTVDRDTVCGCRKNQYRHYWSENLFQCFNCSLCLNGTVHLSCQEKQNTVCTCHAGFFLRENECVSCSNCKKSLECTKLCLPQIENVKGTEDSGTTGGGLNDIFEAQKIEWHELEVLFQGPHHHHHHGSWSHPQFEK
Summary of the method: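 Readout is the 665/615 nm TR-FRET ratio (Eu anti-His donor, streptavidin-Alexa647 acceptor), normalized to DMSO and saturating displacer, fit by Morrison-based five-parameter logistic for Kd^app. His-tagged sTNFR1 (1-211) prebound to 100 nM biotinylated peptide SEQ ID NO.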

[3] = displacement of biotinylated peptide SEQ ID NO. 1 from sTNFR1, 20 point titration, 5-parameter fit based on Morrison equation (tight binding), read-out: TR-FRET Kd^app

Compound	IC50 ([1]; listed as 77)	Kd [2, 3]	IC50 [1]	IC50 [2]	Kd [2]
CCCC[C@@H]1NC(=O)[C@@H]2CC[C@@H](C2)NC(=O)[C@H]([C@@H](C)c2c[nH]c3c(OC)cccc23)NC(=O)CN(C)C(=O)[C@H](Cc2ccc(C(=O)O)cc2)NC(=O)[C@H](Cc2ccc(C(N)=O)cc2)NC(=O)[C@](C)(CO)NC(=O)[C@H](Cc2c[nH]c3c(C#N)cccc23)NC(=O)[C@H](Cc2ccc(C(=O)O)cc2)NC(=O)[C@H](CC(N)=O)NC(=O)[C@H]2C[C@H](OCC(=O)O)CN2C(=O)[C@H](Cc2c[nH]c3ncccc23)NC(=O)[C@@H]2CC[C@@H](O)CN2C(=O)[C@H](Cc2ccncc2)NC1=O [SEQ ID NO. 77] (cyclo([4Pal][Pip(5R-OH)][Trp(7-aza)][dHyp](Carboxymethyl)N[Phe(4-COOH)][Trp(7-CN)][αMeS][Phe(4-CONH2)][Phe(4-COOH)][Sar][Trp(βS-Me,7-OMe)][X1][Nle]))	0.6 nM	0.06 nM			
CCCC[C@@H]1NC(=O)CSC[C@@H](C(N)=O)NC(=O)[C@H]([C@@H](C)c2c[nH]c3c(OC)cccc23)NC(=O)CN(C)C(=O)[C@H](Cc2ccc(O)cc2)NC(=O)[C@H](Cc2ccc(C(=O)O)cc2)NC(=O)[C@](C)(CO)NC(=O)[C@H](Cc2c[nH]c3c(Cl)cccc23)NC(=O)[C@H](Cc2ccncc2)NC(=O)[C@H](CC(N)=O)NC(=O)[C@H](CCC(=O)O)N(C)C(=O)[C@H](Cc2c[nH]c3ncccc23)NC(=O)[C@H]([C@H](O)c2ccccc2)NC(=O)[C@H](Cc2ccncc2)NC1=O [SEQ ID NO. 211] ({CH2CO}-[Nle][4Pal][Phe(3R-OH)][Trp(7-aza)][NMeE]N[4Pal][Trp(7-Cl)][αMeS][Phe(4-COOH)]Y[Sar][Trp(βS-Me,7-OMe)]C-NH2; thioether N-14)			3.3 nM	0.79 nM	0.63 nM
CCCC[C@@H]1NC(=O)[C@@H]2CC[C@@H](C2)NC(=O)[C@H]([C@@H](C)c2c[nH]c3c(OC)cccc23)NC(=O)CN(C)C(=O)[C@H](Cc2ccc(O)cc2F)NC(=O)[C@H](Cc2ccc(C(=O)O)cc2)NC(=O)[C@](C)(CO)NC(=O)[C@H](Cc2c[nH]c3c(Cl)cccc23)NC(=O)[C@H](Cc2ccncc2)NC(=O)[C@H](CC(N)=O)NC(=O)[C@H](CCC(=O)O)N(C)C(=O)[C@H](Cc2c[nH]c3ccccc23)NC(=O)[C@@H]2CNCCN2C(=O)[C@H](Cc2ccncc2)NC1=O [SEQ ID NO. 175] (cyclo([4Pal][Trp(7-Cl)][αMeS][Phe(4-COOH)][Tyr(2-F)][Sar][Trp(βS-Me,7-OMe)][X1][Nle][4Pal][Pip(4-aza)]W[NMeE]N))			0.9 nM		0.22 nM
CCCC[C@@H]1NC(=O)[C@@H]2CC[C@@H](C2)NC(=O)[C@H]([C@@H](C)c2c[nH]c3c(OC)cccc23)NC(=O)CN(C)C(=O)[C@H](Cc2ccc(O)cc2)NC(=O)[C@H](Cc2ccc(C(=O)O)cc2)NC(=O)[C@](C)(CO)NC(=O)[C@H](Cc2c[nH]c3c(Cl)cccc23)NC(=O)[C@H](Cc2ccncc2)NC(=O)[C@H](CCOC)NC(=O)[C@H](CCC(=O)O)N(C)C(=O)[C@H](Cc2c[nH]c3ccccc23)NC(=O)[C@@H]2CNCCN2C(=O)[C@H](Cc2ccncc2)NC1=O [SEQ ID NO. 181] (cyclo([4Pal][Trp(7-Cl)][αMeS][Phe(4-COOH)]Y[Sar][Trp(βS-Me,7-OMe)][X1][Nle][4Pal][Pip(4-aza)]W[NMeE][hSer](Me)))			1.2 nM		0.34 nM
COc1cccc2c([C@H](C)[C@@H]3NC(=O)CN(C)C(=O)[C@H](Cc4ccc(O)cc4)NC(=O)[C@H](Cc4ccc(C(=O)O)cc4)NC(=O)[C@](C)(CO)NC(=O)[C@H](Cc4c[nH]c5c(Cl)cccc45)NC(=O)[C@H](Cc4ccncc4)NC(=O)[C@H](CC(N)=O)NC(=O)[C@H](CCC(=O)O)N(C)C(=O)[C@H](Cc4c[nH]c5ccccc45)NC(=O)[C@@H]4CNCCN4C(=O)[C@H](Cc4ccncc4)NC(=O)[C@H](CC45CC(C4)C5)NC(=O)[C@@H]4CC[C@@H](C4)NC3=O)c[nH]c12 [SEQ ID NO. 190] (cyclo([4Pal][Trp(7-Cl)][αMeS][Phe(4-COOH)]Y[Sar][Trp(βS-Me,7-OMe)][X1][Ala(1-bicyclo(1.1.1)pentyl)][4Pal][Pip(4-aza)]W[NMeE]N))			1.6 nM		0.33 nM
CCCC[C@@H]1NC(=O)[C@@H]2CC[C@@H](C2)NC(=O)[C@H]([C@@H](C)c2c[nH]c3c(OC)cccc23)NC(=O)CN(C)C(=O)[C@H](Cc2ccc(O)cc2)NC(=O)[C@H](Cc2ccc(S(=O)(=O)O)cc2)NC(=O)[C@](C)(CO)NC(=O)[C@H](Cc2c[nH]c3c(Cl)cccc23)NC(=O)[C@H](Cc2ccncc2)NC(=O)[C@H](CC(N)=O)NC(=O)[C@H](CCC(=O)O)N(C)C(=O)[C@H](Cc2c[nH]c3ccccc23)NC(=O)[C@@H]2CNCCN2C(=O)[C@H](Cc2ccncc2)NC1=O [SEQ ID NO. 199] (cyclo([4Pal][Trp(7-Cl)][αMeS][Phe(4-SO3H)]Y[Sar][Trp(βS-Me,7-OMe)][X1][Nle][4Pal][Pip(4-aza)]W[NMeE]N))			1 nM		0.32 nM
CCCC[C@@H]1NC(=O)CSC[C@@H](C(N)=O)NC(=O)[C@](C)(Cc2c[nH]c3ccccc23)NC(=O)CN(C)C(=O)[C@H](Cc2ccc(O)cc2)NC(=O)[C@H](Cc2ccc(C(=O)O)cc2)NC(=O)[C@](C)(CO)NC(=O)[C@H](Cc2c[nH]c3c(Cl)cccc23)NC(=O)[C@H](Cc2ccncc2)NC(=O)[C@H](CC(N)=O)NC(=O)[C@H](CCC(=O)O)N(C)C(=O)[C@H](Cc2c[nH]c3ncccc23)NC(=O)[C@H](CCN)NC(=O)[C@H](Cc2ccncc2)NC1=O [SEQ ID NO. 277] ({CH2CO}-[Nle][4Pal][Dab][Trp(7-aza)][NMeE]N[4Pal][Trp(7-Cl)][αMeS][Phe(4-COOH)]Y[Sar][αMeW]C-NH2; thioether N-14)			3 nM	1.12 nM	
CCCC[C@@H]1NC(=O)[C@@H]2CC[C@@H](C2)NC(=O)[C@H]([C@@H](C)c2c[nH]c3c(OC)cccc23)NC(=O)CN(C)C(=O)[C@H](Cc2ccc(C(=O)O)cc2)NC(=O)[C@H](Cc2ccc(C(N)=O)cc2)NC(=O)[C@](C)(CO)NC(=O)[C@H](Cc2c[nH]c3c(Cl)cccc23)NC(=O)[C@H](Cc2ccc(C(=O)O)cc2)NC(=O)[C@H](CC(N)=O)NC(=O)[C@H]2C[C@H](c3nn[nH]n3)CN2C(=O)[C@H](Cc2c[nH]c3ccccc23)NC(=O)[C@@H]2CC[C@@H](O)CN2C(=O)[C@H](Cc2ccncc2)NC1=O [SEQ ID NO. 11] (cyclo([4Pal][Pip(5R-OH)]W[X55]N[Phe(4-COOH)][Trp(7-Cl)][αMeS][Phe(4-CONH2)][Phe(4-COOH)][Sar][Trp(βS-Me,7-OMe)][X1][Nle]))			0.7 nM		0.07 nM
CCCC[C@@H]1NC(=O)[C@@H]2CC[C@@H](C2)NC(=O)[C@H]([C@@H](C)c2c[nH]c3c(OC)cccc23)NC(=O)CN(C)C(=O)[C@H](Cc2ccc(C(=O)O)cc2)NC(=O)[C@H](Cc2ccc(S(N)(=O)=O)cc2)NC(=O)[C@](C)(CO)NC(=O)[C@H](Cc2c[nH]c3c(C#N)cccc23)NC(=O)[C@H](Cc2ccncc2)NC(=O)[C@H](CC(N)=O)NC(=O)[C@H]2C[C@H](OCC(=O)O)CN2C(=O)[C@H](Cc2c[nH]c3ncccc23)NC(=O)[C@@H]2CC[C@@H](O)CN2C(=O)[C@H](Cc2ccncc2)NC1=O [SEQ ID NO. 31] (cyclo([4Pal][Trp(7-CN)][αMeS][Phe(4-SO2NH2)][Phe(4-COOH)][Sar][Trp(βS-Me,7-OMe)][X1][Nle][4Pal][Pip(5R-OH)][Trp(7-aza)][dHyp](Carboxymethyl)N))		0.04 nM	0.4 nM		
CCCC[C@@H]1NC(=O)[C@@H]2CC[C@@H](C2)NC(=O)[C@H]([C@@H](C)c2c[nH]c3c(OC)cccc23)NC(=O)CN(C)C(=O)[C@H](Cc2ccc(C(=O)O)cc2)NC(=O)[C@H](Cc2ccc(C(N)=O)cc2)NC(=O)[C@](C)(CO)NC(=O)[C@H](Cc2c[nH]c3c(C#N)cccc23)NC(=O)[C@H](Cc2ccc(C(=O)O)c(F)c2)NC(=O)[C@H](CC(N)=O)NC(=O)[C@H]2C[C@H](NC(=O)C[N+](C)(C)C)CN2C(=O)[C@H](Cc2c[nH]c3ncccc23)NC(=O)[C@@H]2CC[C@@H](O)CN2C(=O)[C@H](Cc2ccncc2)NC1=O [SEQ ID NO. 116] (cyclo([4Pal][Pip(5R-OH)][Trp(7-aza)][X49]N[X27][Trp(7-CN)][αMeS][Phe(4-CONH2)][Phe(4-COOH)][Sar][Trp(βS-Me,7-OMe)][X1][Nle]))			0.4 nM		0.08 nM
